Values joined by “and” are separate entries in the source; they are usually repeats but may differ in a detail not shown here. Identical values can stand only once. “Also recorded” adds a separate entry of the source. Marks after values point to notes of the source that are not given here.
Assays:
Type in all cases: in vivo, Balb C mice
[1] = tested on: collagen antibody-induced arthritis; assay: Mouse CAIA: hind paw / footpad volume (swelling, disease burden); set-up: Mean Disease Burden / Total Disease Burden (AUC) / Hind Limb Volume, Mean Diff. / Total Disease, Mean Diff.: unit not given here; settings: for % Disease Suppression / Total Disease Burden (AUC): days 8-22
Description: (§1) Balb C mice (n=10 per cohort) were used to determine the efficacy of Factor H (FH) during […]. The mice were treated with ArthritoMAb (anti-collagen) antibody cocktail (2 mg, i.v.) on day 1, followed 7 days later with an injection of LPS (50 μg, i.p.). On day 8, hind paw volumes were measured for each animal and distributed to various treatment groups.
Factor H was formulated in 20 mM Citrate, 150 mM NaCl, pH=6. […] Ethanercept was formulated as Enbrel™ in saline. Vehicle was formulated in 20 mM Citrate, 150 mM NaCl, pH=6. […] The dosing volume for Factor H and BX12 was 25 mL/kg (0.500 mL/20 g mouse) and adjusted accordingly for body weight.
(§2) Dosing with the different agents was started on day 8 as described in Table 3.
(§3) The age at start date was 7 to 9 weeks. Body weights were measured bi-weekly to the endpoint (Table 4). At the endpoint, tissue samples were processed for histology and submitted to a pathologist for independent analysis. Sampling 1 was performed at the endpoint. The hind limbs were preserved in 10% formalin. Sampling 2 was performed at the endpoint for group 4 animals. Blood was collected by terminal cardiac puncture. The blood was processed for anti-coagulant. The kidneys were additionally preserved in formalin and followed with 70% EtOH. Samples were scored for inflammation, pannus (granulation tissue), cartilage damage, bone resorption and exostosis (Table 5).

[2] = tested on: collagen antibody-induced arthritis; assay: Mouse CAIA: ankle histology scores (H & E); set-up: key to Score From H & E: Inflammation: 0: normal; 1: minimal infiltration of inflammatory cells in periarticular tissue; 2: mild infiltration; 3: moderate infiltration with moderate edema; 4: marked infiltration with marked edema; 5: severe infiltration with severe edema; key to Exostosis, Summary (significance) / Composite, Summary (significance) / Pannus, Summary (significance) / Cartilage, Summary (significance) / Inflammation, Summary (significance): ns: = not significant; *: = P < 0.05; **: = P < 0.01; ***: = P < 0.001; Composite Biohistopathology Score, group value / Composite Biohistopathology Score: scale not given here
Description: as §1, §2
as §3, with “Hind paw volumes were measured on day 8, 11, 12, 13, 15, 19 and 22 (endpoint). The age” for “The age”

[3] = tested on: collagen antibody-induced arthritis; assay: Mouse CAIA: ankle histology scores (H & E); set-up: key: 0: normal; 1: minimal; 2: mild; 3: moderate; 4: marked; 5: severe; settings: individual animal, score 0-5, endpoint day 22, listed as Group 4
Description: as §1, §2
as §3, with “Hind paw volumes were measured on day 8, 11, 12, 13, 15, 19 and 22 (endpoint). The age” for “The age”

[4] = tested on: collagen antibody-induced arthritis; assay: Mouse CAIA: ankle histology scores (H & E); set-up: key: 0: normal; 1: minimal infiltration of inflammatory cells in periarticular tissue; 2: mild infiltration; 3: moderate infiltration with moderate edema; 4: marked infiltration with marked edema; 5: severe infiltration with severe edema; settings: individual animal, score 0-5, endpoint day 22, listed as Group 4
Description: as §1, §2
as §3, with “Hind paw volumes were measured on day 8, 11, 12, 13, 15, 19 and 22 (endpoint). The age” for “The age”

[5] = tested on: collagen antibody-induced arthritis; assay: Mouse CAIA: ankle histology scores (H & E); set-up: key: 0: normal; 1: minimal to mild loss of staining density with no obvious chondrocyte loss or collagen disruption; 2: mild loss of staining density with focal mild (superficial) chondrocyte loss and/or collagen disruption; 3: moderate loss of staining density with multifocal moderate (depth to middle zone) chondrocyte loss and/or collagen disruption; 4: marked loss of staining density with multifocal marked (depth to deep zone) chondrocyte loss and/or collagen disruption; 5: severe diffuse loss of staining density with multifocal severe (depth to tide mark) chondrocyte loss and/or collagen disruption; settings: individual animal, score 0-5, endpoint day 22, listed as Group 4
Description: as §1, §2
as §3, with “Hind paw volumes were measured on day 8, 11, 12, 13, 15, 19 and 22 (endpoint). The age” for “The age”

[6] = Vehicle vs agent, Dunnett's Multiple Comparison Test
[7] = individual animal, listed as BX12
[8] = Vehicle vs agent, Dunn's Multiple Comparison Test
[9] = ankle, group mean ± spread, 10 animals, score 0-5
[10] = histopathology score, graded 1-5, hind limbs at endpoint, group value

Factor H
Hind Limb Volume, Mean Diff. [1, 6]: 0.1199 | Hind Limb Volume, Summary (significance) [1, 6]: *** (= P < 0.001) | Total Disease, Mean Diff. [1, 6]: 1.88 | Total Disease, Summary (significance) [1, 6]: *** (= P < 0.001) | Hind paw volume ([1]; day 8 of study, group mean, n 10): 0.35 mL | Hind paw volume ([1]; day 8 of study, individual animal, listed as BX12): 0.41 mL and 0.4 mL and 0.38 mL and 0.37 mL and 0.35 mL and 0.34 mL and 0.32 mL (2×) and 0.3 mL (2×) | Hind paw volume ([1]; day 11 of study, group mean, n 10): 0.39 mL | Hind paw volume ([1]; day 11 of study, individual animal, listed as BX12): 0.44 mL and 0.36 mL and 0.38 mL and 0.4 mL and 0.34 mL and 0.39 mL and 0.46 mL and 0.43 mL and 0.35 mL | Hind paw volume ([1]; day 12 of study, group mean, n 10): 0.44 mL | Hind paw volume ([1]; day 12 of study, individual animal, listed as BX12): 0.5 mL and 0.56 mL and 0.52 mL and 0.4 mL and 0.35 mL and 0.55 mL and 0.37 mL and 0.34 mL and 0.3 mL and 0.45 mL | Hind paw volume ([1]; day 13 of study, group mean, n 10): 0.36 mL | Hind paw volume ([1]; day 13 of study, individual animal, listed as BX12): 0.32 mL (2×) and 0.54 mL and 0.36 mL and 0.29 mL (2×) and 0.43 mL and 0.37 mL and 0.39 mL and 0.33 mL | Hind paw volume ([1]; day 16 of study, group mean, n 10): 0.31 mL | Hind paw volume ([1]; day 16 of study, individual animal, listed as BX12): 0.29 mL (2×) and 0.35 mL (2×) and 0.32 mL and 0.28 mL (3×) and 0.42 mL and 0.27 mL | Hind paw volume ([1]; day 19 of study, group mean, n 10): 0.34 mL | Hind paw volume ([1]; day 19 of study, individual animal, listed as BX12): 0.3 mL (2×) and 0.4 mL and 0.42 mL and 0.31 mL and 0.25 mL and 0.45 mL and 0.29 mL (2×) and 0.36 mL | Hind paw volume ([1]; day 22 of study, group mean, n 10): 0.35 mL | Hind paw volume ([1]; day 22 of study, individual animal, listed as BX12): 0.38 mL and 0.39 mL and 0.32 mL (2×) and 0.33 mL and 0.42 mL and 0.35 mL and 0.34 mL (2×) and 0.29 mL | % Disease Suppression ([1]; group mean, n 10): 97.33% | Total Disease Burden (AUC) ([1]; group mean, n 10): 0.05 | % Disease Suppression [1, 7]: 140.2% and 93.5% and 107.8% and 121.6% and 130.8% and 38.3% and 96.1% and 96.9% and 65.5% and 52.1% | Total Disease Burden (AUC) [1, 7]: −0.78 and 0.13 and −0.15 and −0.42 and −0.60 and 1.19 and 0.08 (2×) and 0.55 and 0.35 | Maximum Δ Mean Volume ([1]; difference between mean combined foot pad volumes on day 8 and on median day of maximal swelling, vehicle 0.21): 0.12*** ml | Mean Disease Burden ([1]; group mean AUC of combined footpad volume over baseline, days 8 to 22, vehicle 1.93): 0.05*** | % Disease Suppression (vs Vehicle) ([1]; percent decrease in total disease burden relative to vehicle): 97.3% | foot pad / hind limb swelling ([1]; result in words (Table 9, FIG. 9), listed as FH): lower mean change in foot pad swelling on the day of maximal swelling compared to vehicle; also recorded: performed well compared to Etanercept | Cartilage, Difference in rank sum [2, 8]: −0.75 | Cartilage, Summary (significance) [2, 8]: ns | Composite, Difference in rank sum [2, 8]: 3.25 | Composite, Summary (significance) [2, 8]: ns | Exostosis, Difference in rank sum [2, 8]: 11.5 | Exostosis, Summary (significance) [2, 8]: * (= P < 0.05) | Inflammation, Difference in rank sum [2, 8]: 6.45 | Inflammation, Summary (significance) [2, 8]: ns | Pannus, Difference in rank sum [2, 8]: 1.9 | Pannus, Summary (significance) [2, 8]: ns | Composite Biohistopathology Score, group value ([2]; ankle, group mean ± spread, 10 animals): 3.1 ± 1.2 | Score From H & E: Bone Resorption, group value [2, 9]: 0.3 ± 0.2 | Score From H & E: Cartilage Damage, group value [2, 9]: 0.6 ± 0.2 | Score From H & E: Inflammation, group value [2, 9]: 1.0 ± 0.3 | Score From H & E: Pannus, group value [2, 9]: 0.9 ± 0.3 | Score From H & E: Periosteal/Exostotic Changes, group value [2, 9]: 0.3 ± 0.3 | Composite Biohistopathology Score ([2]; ankle, individual animal, endpoint day 22, listed as Group 4): 1 (3×) and 4 and 5 and 2 and 0 (2×) and 13 and 3 | Score From H & E: Inflammation ([2]; ankle, individual animal, score 0-5, endpoint day 22, listed as Group 4): 0 (4×) and 1 (3×) and 2 (2×) and 3 | Composite Score ([2]; histopathology composite, hind limbs at endpoint, group value): 3.1 ± 1.2^ns | Bone Resorption [2, 10]: 0.3 ± 0.2^ns | Cartilage Damage [2, 10]: 0.6 ± 0.2^ns | Exostosis [2, 10]: 0.3 ± 0.3 | Inflammation [2, 10]: 1.0 ± 0.3^ns | Pannus [2, 10]: 0.9 ± 0.3^ns | histopathology ([2]; result in words (Table 8, FIG. 11), listed as FH): inhibits exostosis; also recorded: trend toward improved inflammation and bone resorption | Score From H & E: Bone Resorption [3]: 1 and 2 | Score From H & E: Periosteal/Exostotic Changes [3]: 3 | Score From H & E: Bone Resorption [4]: 0 | Score From H & E: Cartilage Damage [4]: 0 | Score From H & E: Pannus [4]: 2 and 0 (4×) | Score From H & E: Periosteal/Exostotic Changes [4]: 0 | Score From H & E: Cartilage Damage [5]: 1 (4×) and 2
